46 compounds from ChEMBL document CHEMBL5252560 (Bioorg Med Chem Lett, 2023) can be followed below.

A value given as a limit tells only on which side of the number the result lay.

What all share (assay type): functional, cell-based
In one assay the test system is Y79. Briefly: Antiproliferative activity against human Y79 cells assessed as cell growth inhibition.
For another assay, the system named is A549. Briefly: Antiproliferative activity against human A549 cells assessed as cell growth inhibition.
The test system of a further assay is U-937. Briefly: Antiproliferative activity against human U-937 cells assessed as cell growth inhibition.
A further assay deals with HepG2. Kind of assay: Antiproliferative activity against human HepG2 cells assessed as cell growth inhibition.

Take `COc1cc(C2=NNC(c3ccc4c(c3)OCCO4)C2)cc(OC)c1OC` (centres undefined): the IC50 in the assay with Y79, in the assay with A549, in the assay on U-937 and in the assay on HepG2 was over 10 µM each time.

Turning to `COC(=O)c1ccc2c(C3CC(c4cc(OC)c(OC)c(OC)c4)=NN3)c[nH]c2c1` (centres undefined), the IC50 was over 10 µM in the assay with Y79, over 10 µM in the assay with A549, 7.36 µM with U-937 and 6.35 µM with HepG2.

With `COc1cc(C2=NNC(c3ccc4oc5ccccc5c4c3)C2)cc(OC)c1OC` (centres undefined), the IC50 in the assay on Y79, with A549, with U-937 and in the assay on HepG2 was over 10 µM throughout.

As for `COc1cc(C2=NNC(c3ccc4cc[nH]c4c3)C2)cc(OC)c1OC` (centres undefined), the IC50 in the assay with Y79, in the assay on A549, in the assay on U-937 and in the assay with HepG2 was over 10 µM each time.

In the case of `COc1cc(C2=NNC(c3cccc4ccccc34)C2)cc(OC)c1OC` (centres undefined), the IC50 in the assay with Y79, in the assay with A549, in the assay with U-937 and in the assay with HepG2 was over 10 µM each time.

For the compound `COc1cc(C2=NOC(c3ccc4ncccc4c3)C2)cc(OC)c1OC` (centres undefined), the IC50 in the assay on Y79, in the assay on A549, in the assay on U-937 and with HepG2 was over 10 µM throughout.

In the case of `COc1cc(C2=NOC(c3cc(OC)c(OC)c(OC)c3)C2)cc(OC)c1OC` (centres undefined), the IC50 in the assay on Y79, with A549, in the assay with U-937 and in the assay on HepG2 was over 10 µM in each case.

As to `COc1cc(-c2cc(-c3ccc4c(c3)OCCO4)on2)cc(OC)c1OC`, the concentration for half-maximal inhibition (IC50) in the assay with Y79 was over 10 µM; in the assay on A549 it was 5.9 µM; in the assay with U-937, 6.29 µM; with HepG2 it was 8.33 µM.

On to `COc1cc(C2=NOC(c3c[nH]c4ccccc34)C2)cc(OC)c1OC` (centres undefined), for which the IC50 in the assay with Y79 was over 10 µM; with A549 it was over 10 µM; with U-937, 3.38 µM; with HepG2, 5.61 µM.

As to `COc1cc(C2=NNC(c3coc4ccccc34)C2)cc(OC)c1OC` (centres undefined), the concentration for half-maximal inhibition (IC50) in the assay with Y79, in the assay on A549, in the assay with U-937 and in the assay with HepG2 was over 10 µM each time.

Regarding `COc1cc(-c2cc(-c3cccc4ccccc34)on2)cc(OC)c1OC`, the half-inhibitory concentration (IC50) was over 10 µM in the assay on Y79, over 10 µM in the assay with A549, 0.919 µM with U-937 and over 10 µM in the assay on HepG2.

Turning to `COc1cc(C2=NNC(c3c[nH]c4cc(Br)ccc34)C2)cc(OC)c1OC` (centres undefined), the 50% inhibitory concentration (IC50) in the assay on Y79 was over 10 µM; in the assay with A549 it was 3.41 µM; with U-937, 1.24 µM; in the assay on HepG2, 4.56 µM.

`COc1cc(C2=NOC(c3csc4ccccc34)C2)cc(OC)c1OC` (centres undefined): the IC50 in the assay with Y79, in the assay on A549, in the assay on U-937 and with HepG2 was over 10 µM each time.

In the case of `COc1cc(C2=NNC(c3ccc4[nH]ccc4c3)C2)cc(OC)c1OC` (centres undefined), the half-maximal inhibitory concentration (IC50) in the assay on Y79 is over 10 µM; in the assay on A549, 2.79 µM; in the assay with U-937, 0.953 µM; with HepG2, 3.42 µM.

In the case of `CCn1c2ccccc2c2cc(C3CC(c4cc(OC)c(OC)c(OC)c4)=NO3)ccc21` (centres undefined), the IC50 with Y79 was over 10 µM; in the assay with A549 it was over 10 µM; with U-937 it was 1.56 µM; in the assay with HepG2, 4.37 µM.

Regarding `COc1cc(C2=NNC(c3ccc4sc5ccccc5c4c3)C2)cc(OC)c1OC` (centres undefined), the IC50 with Y79, with A549, in the assay with U-937 and with HepG2 was over 10 µM throughout.

As to `COC(=O)c1ccc2c(C3CC(c4cc(OC)c(OC)c(OC)c4)=NO3)c[nH]c2c1` (centres undefined), the IC50 in the assay on Y79, in the assay on A549, with U-937 and in the assay on HepG2 was over 10 µM throughout.

For `COc1cc(C2=NNC(c3ccc4ncccc4c3)C2)cc(OC)c1OC` (centres undefined), the half-inhibitory concentration (IC50) in the assay with Y79, in the assay on A549, in the assay with U-937 and in the assay with HepG2 was over 10 µM in each case.

On to `COc1cc(C2=NOC(c3ccc4occc4c3)C2)cc(OC)c1OC` (centres undefined), for which the 50% inhibitory concentration (IC50) in the assay on Y79, with A549, in the assay with U-937 and with HepG2 was over 10 µM in each case.

As for `COc1cc(C2=NOC(c3cccc4c3OCO4)C2)cc(OC)c1OC` (centres undefined), the IC50 with Y79, in the assay with A549, with U-937 and in the assay on HepG2 was over 10 µM each time.

As for `COc1cc(C2=NOC(c3ccc4c(c3)OCCO4)C2)cc(OC)c1OC` (centres undefined), the concentration for half-maximal inhibition (IC50) in the assay on Y79, with A549, in the assay with U-937 and with HepG2 was over 10 µM each time.

`COc1cc(C2=NOC(c3ccc4ccccc4c3)C2)cc(OC)c1OC` (centres undefined): the concentration for half-maximal inhibition (IC50) was over 10 µM in the assay on Y79, over 10 µM in the assay with A549, over 10 µM in the assay with U-937 and 6.3 µM in the assay on HepG2.

As to `COc1cc(C2=NNC(c3cc4ccccc4o3)C2)cc(OC)c1OC` (centres undefined), the concentration for half-maximal inhibition (IC50) in the assay with Y79, with A549, with U-937 and in the assay on HepG2 was over 10 µM each time.

Regarding `COc1cc(C(/C=C/c2ccc3ccccc3c2)=N/O)cc(OC)c1OC`, the concentration for half-maximal inhibition (IC50) in the assay with Y79 was over 10 µM; in the assay on A549 it was over 10 µM; with U-937 it was over 7.43 µM; with HepG2, 0.432 µM.

For `COc1cc(C2=NOC(c3ccc4[nH]ccc4c3)C2)cc(OC)c1OC` (centres undefined), the IC50 in the assay on Y79 is over 10 µM; in the assay on A549, over 10 µM; in the assay with U-937 it was 5.51 µM; in the assay on HepG2 it was over 10 µM.

As for `COc1cc(-c2cc(-c3ccc4ccccc4c3)on2)cc(OC)c1OC`, the IC50 in the assay with Y79, with A549, in the assay on U-937 and with HepG2 was over 10 µM throughout.

In the case of `COc1cc(C(/C=C/c2cc3ccccc3s2)=N/O)cc(OC)c1OC`, the IC50 in the assay on Y79 was over 10 µM; in the assay with A549, over 10 µM; in the assay on U-937, 0.284 µM; with HepG2, 0.493 µM.

Take `COc1cc(C2=NNC(c3csc4ccccc34)C2)cc(OC)c1OC` (centres undefined): the concentration for half-maximal inhibition (IC50) in the assay with Y79, in the assay on A549, in the assay with U-937 and with HepG2 was over 10 µM throughout.

With `COc1cc(C2=NNC(c3ccc4occc4c3)C2)cc(OC)c1OC` (centres undefined), the IC50 with Y79, in the assay with A549, in the assay with U-937 and with HepG2 was over 10 µM in each case.

For the compound `COc1cc(C2=NOC(c3ccc4oc5ccccc5c4c3)C2)cc(OC)c1OC` (centres undefined), the IC50 in the assay with Y79, in the assay with A549, in the assay on U-937 and in the assay with HepG2 was over 10 µM each time.

As to `COc1cc(C2=NOC(c3ccc4c(c3)CCO4)C2)cc(OC)c1OC` (centres undefined), the IC50 in the assay on Y79, in the assay on A549, in the assay with U-937 and with HepG2 was over 10 µM each time.

With `COc1cc(C(/C=C/c2ccc3ncccc3c2)=N/O)cc(OC)c1OC`, the IC50 in the assay on Y79 is over 10 µM; in the assay with A549, 0.445 µM; in the assay with U-937, 0.475 µM; in the assay with HepG2, 0.466 µM.

With `COc1cc(C2=NOC(c3ccc4sc5ccccc5c4c3)C2)cc(OC)c1OC` (centres undefined), the IC50 in the assay on Y79 was over 10 µM; in the assay on A549, over 10 µM; in the assay on U-937 it was 0.233 µM; in the assay on HepG2, 1.68 µM.

As to `COc1cc(C(/C=C/c2ccc3occc3c2)=N/O)cc(OC)c1OC`, the IC50 in the assay with Y79 was 0.371 µM; in the assay on A549 it was over 10 µM; in the assay on U-937, 0.873 µM; in the assay on HepG2 it was 0.179 µM.

As for `COc1cc(C2=NNC(c3cccc4c3OCO4)C2)cc(OC)c1OC` (centres undefined), the concentration for half-maximal inhibition (IC50) in the assay on Y79, in the assay with A549, with U-937 and in the assay on HepG2 was over 10 µM throughout.

For `COc1cc(C2=NOC(c3cccc4ccccc34)C2)cc(OC)c1OC` (centres undefined), the IC50 in the assay on Y79, with A549, in the assay on U-937 and in the assay on HepG2 was over 10 µM throughout.

For the compound `CCn1c2ccccc2c2cc(/C=C/C(=N\O)c3cc(OC)c(OC)c(OC)c3)ccc21`, the half-maximal inhibitory concentration (IC50) in the assay with Y79 is over 10 µM; in the assay with A549, 1.96 µM; in the assay on U-937, 5.21 µM; in the assay on HepG2, 0.692 µM.

As to `COc1cc(C2=NNC(c3ccc4ccccc4c3)C2)cc(OC)c1OC` (centres undefined), the IC50 in the assay on Y79, in the assay on A549, in the assay on U-937 and in the assay on HepG2 was over 10 µM each time.

Consider `COc1cc(C2=NNC(c3c[nH]c4ccccc34)C2)cc(OC)c1OC` (centres undefined), for which the half-maximal inhibitory concentration (IC50) with Y79 was over 10 µM; in the assay with A549 it was 7.13 µM; with U-937, 3.49 µM; with HepG2, 4.35 µM.

`COc1cc(C2=NNC(c3ccc4c(c3)CCO4)C2)cc(OC)c1OC` (centres undefined): the IC50 in the assay on Y79 is over 10 µM; with A549 it was over 10 µM; in the assay on U-937 it was over 10 µM; in the assay on HepG2 it was 6.93 µM.

For `COc1cc(C(/C=C/c2ccc3sc4ccccc4c3c2)=N/O)cc(OC)c1OC`, the IC50 with Y79 was over 10 µM; with A549, over 10 µM; in the assay on U-937 it was 1.39 µM; with HepG2 it was 0.743 µM.

Take `COc1cc(-c2cc(-c3cccc4c3OCO4)on2)cc(OC)c1OC`: the half-maximal inhibitory concentration (IC50) with Y79, with A549, with U-937 and with HepG2 was over 10 µM each time.

`COc1cc(C2=NOC(c3cc4ccccc4o3)C2)cc(OC)c1OC` (centres undefined): the IC50 in the assay with Y79, in the assay on A549, in the assay with U-937 and in the assay with HepG2 was over 10 µM in each case.

As for `COc1cc(C(/C=C/c2ccc3oc4ccccc4c3c2)=N/O)cc(OC)c1OC`, the IC50 is over 10 µM with Y79, over 10 µM in the assay on A549, 9.31 µM with U-937 and over 10 µM with HepG2.

`COc1cc(C(/C=C/c2cccc3ccccc23)=N/O)cc(OC)c1OC`: the 50% inhibitory concentration (IC50) was over 10 µM in the assay on Y79, over 10 µM in the assay on A549, 10 µM in the assay on U-937 and 0.601 µM in the assay on HepG2.

Take `CCn1c2ccccc2c2cc(C3CC(c4cc(OC)c(OC)c(OC)c4)=NN3)ccc21` (centres undefined): the IC50 in the assay with Y79 was over 10 µM; in the assay with A549, over 10 µM; in the assay with U-937, 1.95 µM; in the assay with HepG2 it was 2.32 µM.
